Data as given in the supplement of paper PMC10307832.

What was measured:
Assay in all cases: relative viability (nuclei count vs DMSO), 5 days (fraction); higher = more cells survive
[1] = test system: HCC-15
Procedure, shortened: (§1)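 Lung cancer cell lines in 1536-well plates got either a single drug or a fixed anchor-drug dose together with five library-drug doses (not always all listed) in √10 steps, by pin tool, on the day after seeding. Nuclei were counted after 5 days, and relative viability is the treated-to-vehicle ratio of nuclei counts. Values are medians of duplicate plates.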

[2] = test system: SK-MES-1
Procedure, shortened: as §1

[3] = test system: NCI-H1755
Procedure, shortened: as §1

[4] = test system: NCI-H2347
Procedure, shortened: as §1

[5] = test system: NCI-H2009
Procedure, shortened: as §1

[6] = test system: HARA
Procedure, shortened: as §1

[7] = test system: COR-L 105
Procedure, shortened: as §1

[8] = test system: NCI-H2228
Procedure, shortened: as §1

[9] = test system: COR-L23
Procedure, shortened: as §1

[10] = test system: NCI-H1793
Procedure, shortened: as §1

[11] = test system: NCI-H1355
Procedure, shortened: as §1

[12] = test system: NCI-H1993
Procedure, shortened: as §1

[13] = test system: EKVX
Procedure, shortened: as §1

[14] = test system: PC-14
Procedure, shortened: as §1

[15] = test system: UMC-11
Procedure, shortened: as §1

[16] = test system: NCI-H1734
Procedure, shortened: as §1

[17] = test system: NCI-H358
Procedure, shortened: as §1

[18] = test system: HOP-62
Procedure, shortened: as §1

[19] = test system: NCI-H1395
Procedure, shortened: as §1

[20] = test system: NCI-H838
Procedure, shortened: as §1

[21] = test system: NCI-H647
Procedure, shortened: as §1

SMILES: NC(=O)Nc1cc(-c2cccc(F)c2)sc1C(=O)N[C@H]1CCCNC1 [AZD7762] + C[C@]1(O)C[C@@H](c2nc(-c3ccc4ccc(-c5ccccc5)nc4c3)c3c(N)nccn32)C1 [Linsitinib] (partner 1 µM)
- relative viability ([1]; first compound 0.01 µM): 0.886
- relative viability ([1]; first compound 0.03162 µM): 0.918
- relative viability ([1]; first compound 0.1 µM): 0.915
- relative viability ([1]; first compound 0.3162 µM): 0.93
- relative viability ([1]; first compound 1 µM): 0.985
- relative viability ([2]; first compound 0.01 µM): 1.06
- relative viability ([2]; first compound 0.03162 µM): 1.12
- relative viability ([2]; first compound 0.1 µM): 1.11
- relative viability ([2]; first compound 0.3162 µM): 1.04
- relative viability ([2]; first compound 1 µM): 0.414
- relative viability ([3]; first compound 0.01 µM): 1.03
- relative viability ([3]; first compound 0.03162 µM): 1.06
- relative viability ([3]; first compound 0.1 µM): 1.06
- relative viability ([3]; first compound 0.3162 µM): 1.03
- relative viability ([3]; first compound 1 µM): 0.646
- relative viability ([4]; first compound 0.01 µM): 1.09
- relative viability ([4]; first compound 0.03162 µM): 1.01
- relative viability ([4]; first compound 0.1 µM): 1.15
- relative viability ([4]; first compound 0.3162 µM): 1.1
- relative viability ([4]; first compound 1 µM): 1.04
- relative viability ([5]; first compound 0.01 µM): 1.32
- relative viability ([5]; first compound 0.03162 µM): 1.18
- relative viability ([5]; first compound 0.1 µM): 1.27
- relative viability ([5]; first compound 0.3162 µM): 1.22
- relative viability ([5]; first compound 1 µM): 0.752
- relative viability ([6]; first compound 0.01 µM): 0.961
- relative viability ([6]; first compound 0.03162 µM): 0.934
- relative viability ([6]; first compound 0.1 µM): 0.847
- relative viability ([6]; first compound 0.3162 µM): 0.854
- relative viability ([6]; first compound 1 µM): 0.617
- relative viability ([7]; first compound 0.01 µM): 0.855
- relative viability ([7]; first compound 0.03162 µM): 0.921
- relative viability ([7]; first compound 0.1 µM): 0.748
- relative viability ([7]; first compound 0.3162 µM): 0.662
- relative viability ([7]; first compound 1 µM): 0.393
- relative viability ([8]; first compound 0.01 µM): 0.792
- relative viability ([8]; first compound 0.03162 µM): 0.478
- relative viability ([8]; first compound 0.1 µM): 0.734
- relative viability ([8]; first compound 0.3162 µM): 0.289
- relative viability ([8]; first compound 1 µM): 0.242
- relative viability ([9]; first compound 0.01 µM): 1.11
- relative viability ([9]; first compound 0.03162 µM): 0.916
- relative viability ([9]; first compound 0.1 µM): 0.98
- relative viability ([9]; first compound 0.3162 µM): 0.799
- relative viability ([9]; first compound 1 µM): 0.18
- relative viability ([10]; first compound 0.01 µM): 1.05
- relative viability ([10]; first compound 0.03162 µM): 0.82
- relative viability ([10]; first compound 0.1 µM): 0.994
- relative viability ([10]; first compound 0.3162 µM): 0.801
- relative viability ([10]; first compound 1 µM): 0.358
- relative viability ([11]; first compound 0.01 µM): 0.805
- relative viability ([11]; first compound 0.03162 µM): 0.811
- relative viability ([11]; first compound 0.1 µM): 0.766
- relative viability ([11]; first compound 0.3162 µM): 0.859
- relative viability ([11]; first compound 1 µM): 0.762
- relative viability ([12]; first compound 0.01 µM): 0.743
- relative viability ([12]; first compound 0.03162 µM): 0.678
- relative viability ([12]; first compound 0.1 µM): 0.666
- relative viability ([12]; first compound 0.3162 µM): 0.73
- relative viability ([12]; first compound 1 µM): 0.717
- relative viability ([13]; first compound 0.01 µM): 0.972
- relative viability ([13]; first compound 0.03162 µM): 0.971
- relative viability ([13]; first compound 0.1 µM): 0.844
- relative viability ([13]; first compound 0.3162 µM): 0.873
- relative viability ([13]; first compound 1 µM): 0.507
- relative viability ([14]; first compound 0.01 µM): 0.975
- relative viability ([14]; first compound 0.03162 µM): 0.994
- relative viability ([14]; first compound 0.1 µM): 0.995
- relative viability ([14]; first compound 0.3162 µM): 0.891
- relative viability ([14]; first compound 1 µM): 0.425
- relative viability ([15]; first compound 0.01 µM): 1.03
- relative viability ([15]; first compound 0.03162 µM): 0.956
- relative viability ([15]; first compound 0.1 µM): 0.976
- relative viability ([15]; first compound 0.3162 µM): 0.689
- relative viability ([15]; first compound 1 µM): 0.551
- relative viability ([16]; first compound 0.01 µM): 0.885
- relative viability ([16]; first compound 0.03162 µM): 0.887
- relative viability ([16]; first compound 0.1 µM): 1.05
- relative viability ([16]; first compound 0.3162 µM): 0.869
- relative viability ([16]; first compound 1 µM): 0.734
- relative viability ([17]; first compound 0.01 µM): 0.695
- relative viability ([17]; first compound 0.03162 µM): 0.745
- relative viability ([17]; first compound 0.1 µM): 0.711
- relative viability ([17]; first compound 0.3162 µM): 0.617
- relative viability ([17]; first compound 1 µM): 0.42
- relative viability ([18]; first compound 0.01 µM): 1.04
- relative viability ([18]; first compound 0.03162 µM): 1.09
- relative viability ([18]; first compound 0.1 µM): 1.32
- relative viability ([18]; first compound 0.3162 µM): 0.891
- relative viability ([18]; first compound 1 µM): 0.987
- relative viability ([19]; first compound 0.01 µM): 1.16
- relative viability ([19]; first compound 0.03162 µM): 1.09
- relative viability ([19]; first compound 0.1 µM): 0.966
- relative viability ([19]; first compound 0.3162 µM): 0.579
- relative viability ([19]; first compound 1 µM): 0.481
- relative viability ([20]; first compound 0.01 µM): 0.982
- relative viability ([20]; first compound 0.03162 µM): 1.01
- relative viability ([20]; first compound 0.1 µM): 0.942
- relative viability ([20]; first compound 0.3162 µM): 0.978
- relative viability ([20]; first compound 1 µM): 0.627
- relative viability ([21]; first compound 0.01 µM): 1.37
- relative viability ([21]; first compound 0.03162 µM): 1.3
- relative viability ([21]; first compound 0.1 µM): 1.05
- relative viability ([21]; first compound 0.3162 µM): 0.462
- relative viability ([21]; first compound 1 µM): 0.153
